Our source for the IC50 values is patent US20260250290A1 (BRISTOL-MYERS SQUIBB COMPANY, priority 2023, published 2026).

Structures can show the parent of a compound that is named as a salt. Where two headings read alike, the source gives them in different places.

This test has as its target T1, full length SGK1 (Homo sapiens, UniProt O00141).
T1 construct: 125 μM full length SGK1 (Life Technologies Part #PR7358A); purchased Life Technologies PR7358A
T1 sequence (O00141 1-431): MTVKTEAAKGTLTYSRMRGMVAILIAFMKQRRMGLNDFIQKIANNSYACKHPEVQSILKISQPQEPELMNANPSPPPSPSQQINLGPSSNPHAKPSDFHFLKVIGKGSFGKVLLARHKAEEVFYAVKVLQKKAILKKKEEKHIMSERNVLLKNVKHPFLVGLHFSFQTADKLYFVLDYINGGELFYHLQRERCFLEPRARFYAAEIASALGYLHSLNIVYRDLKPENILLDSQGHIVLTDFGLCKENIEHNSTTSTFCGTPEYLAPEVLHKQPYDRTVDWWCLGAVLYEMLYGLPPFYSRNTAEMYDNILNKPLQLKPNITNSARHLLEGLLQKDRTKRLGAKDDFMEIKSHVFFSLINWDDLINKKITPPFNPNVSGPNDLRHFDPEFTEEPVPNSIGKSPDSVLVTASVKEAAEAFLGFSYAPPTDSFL
Kind of test: SGK1 inhibition Assay A (Caliper LabChip electrophoretic separation of fluorescent peptide substrate and phosphorylated product). To be noted: 20 μM ATP, 40 min incubation. The class given is biochemical.

As usually defined, the IC50 is the midpoint of a concentration-inhibition curve. On to `Cn1cc(-c2cc(N3CCC[C@@H](NC(=O)c4ccc(Cl)s4)C3)c3c(N)ncnn23)nn1` [Example 868, (R)—N-(1-(4-amino-7-(1-methyl-1H-1,2,3-triazol-4-yl)pyrrolo[2,1-f][1,2,4]triazin-5-yl)piperidin-3-yl)-5-chlorothiophene-2-carboxamide], for which the IC50 (Assay A, read-out: SGK1 IC50) worked out at 114 nM.

For the setting “SGK1 IC50, Assay A”, `CC(=O)N1CC=C(c2cc(N3CCC[C@@H](NC(=O)c4cccc(S(=O)(=O)F)c4)C3)c3c(N)ncnn23)C1` [Example 869, (R)-3-((1-(7-(1-acetyl-2,5-dihydro-1H-pyrrol-3-yl)-4-aminopyrrolo[2,1-f][1,2,4]triazin-5-yl)piperidin-3-yl)carbamoyl)benzenesulfonyl fluoride] gave an IC50 of 125 nM. On the same count and under the same terms, as for `CC(=O)N1CC=C(c2cc(N3CCC[C@@H](NC(=O)c4ccc(S(=O)(=O)F)cc4)C3)c3c(N)ncnn23)C1` [Example 870, (R)-4-((1-(7-(1-acetyl-2,5-dihydro-1H-pyrrol-3-yl)-4-aminopyrrolo[2,1-f][1,2,4]triazin-5-yl)piperidin-3-yl)carbamoyl)benzenesulfonyl fluoride], the figure is 32 nM. Consider `Nc1ncnn2c(-c3ccc4cnoc4c3)cc(N3CCC[C@@H](NC(=O)c4ccc(Cl)s4)C3)c12` [Example 871, (R)—N-(1-(4-amino-7-(benzo[d]isoxazol-6-yl)pyrrolo[2,1-f][1,2,4]triazin-5-yl)piperidin-3-yl)-5-chlorothiophene-2-carboxamide], for which the IC50 (Assay A, read-out: SGK1 IC50) was found to be 6 nM.

For the molecule `CN(C)CCOc1cc(Cl)sc1C(=O)N[C@@H]1CCCN(c2cc(-c3ccc4cnoc4c3)n3ncnc(N)c23)C1` [Example 872, (R)—N-(1-(4-amino-7-(benzo[d]isoxazol-6-yl)pyrrolo[2,1-f][1,2,4]triazin-5-yl)piperidin-3-yl)-5-chloro-3-(2-(dimethylamino)ethoxy)thiophene-2-carboxamide], the half-maximal inhibitory concentration (IC50) (Assay A, read-out: SGK1 IC50) was found to be 3 nM.

On to `CC(=O)N1CC=C(c2cc(N3CCC[C@@H](NC(=O)Oc4ccccc4)C3)c3c(N)ncnn23)C1` [Example 873, phenyl (R)-(1-(7-(1-acetyl-2,5-dihydro-1H-pyrrol-3-yl)-4-aminopyrrolo[2,1-f][1,2,4]triazin-5-yl)piperidin-3-yl)carbamate], for which the IC50 (Assay A, read-out: SGK1 IC50) turned out to be 936 nM.

Turning to `CC(=O)N1CC=C(c2cc(N3CCC[C@@H](NC(=O)N4CC[C@@H](O)C4)C3)c3c(N)ncnn23)C1` [Example 874, (R)—N—((R)-1-(7-(1-acetyl-2,5-dihydro-1H-pyrrol-3-yl)-4-aminopyrrolo[2,1-f][1,2,4]triazin-5-yl)piperidin-3-yl)-3-hydroxypyrrolidine-1-carboxamide], the IC50 (Assay A, read-out: SGK1 IC50) turned out to be 482 nM. Turning to `CC(=O)N1CC=C(c2cc(N3CCC[C@@H](NC(=O)N4CC[C@H](O)C4)C3)c3c(N)ncnn23)C1` [Example 875, (S)-N-((R)-1-(7-(1-acetyl-2,5-dihydro-1H-pyrrol-3-yl)-4-aminopyrrolo[2,1-f][1,2,4]triazin-5-yl)piperidin-3-yl)-3-hydroxypyrrolidine-1-carboxamide], the IC50 (Assay A, read-out: SGK1 IC50) is 477 nM. As for `CC(=O)N1CC=C(c2cc(N3CCC[C@@H](NC(=O)N4CCCC4)C3)c3c(N)ncnn23)C1` [Example 876, (R)-N-(1-(7-(1-acctyl-2,5-dihydro-1H-pyrrol-3-yl)-4-aminopyrrolo[2,1-f][1,2,4]triazin-5-yl)piperidin-3-yl)pyrrolidine-1-carboxamide], the IC50 (Assay A, read-out: SGK1 IC50) came to 264 nM. In the case of `CC(=O)N1CC=C(c2cc(N3CCC[C@@H](NC(=O)c4ccon4)C3)c3c(N)ncnn23)C1` [Example 879, (R)—N-(1-(7-(1-acetyl-2,5-dihydro-1H-pyrrol-3-yl)-4-aminopyrrolo[2,1-f][1,2,4]triazin-5-yl)piperidin-3-yl)isoxazole-3-carboxamide], the IC50 (Assay A, read-out: SGK1 IC50) came to 149 nM. For `Nc1ncnn2c(C3=CCN(C(=O)c4nccs4)C3)cc(N3CCC[C@@H](NC(=O)c4ccc(Cl)s4)C3)c12` [Example 880, (R)—N-(1-(4-amino-7-(1-(thiazole-2-carbonyl)-2,5-dihydro-1H-pyrrol-3-yl)pyrrolo[2,1-f][1,2,4]triazin-5-yl)piperidin-3-yl)-5-chlorothiophene-2-carboxamide], the IC50 (Assay A, read-out: SGK1 IC50) is 15 nM.

With `NCC(=O)N1CC=C(c2cc(N3CCC[C@@H](NC(=O)c4ccc(Cl)s4)C3)c3c(N)ncnn23)C1` [Example 881, (R)-N-(1-(4-amino-7-(1-glycyl-2,5-dihydro-1H-pyrrol-3-y1)pyrrolo[2,1-f][1,2,4]triazin-5-yl)piperidin-3-y1)-5-chlorothiophene-2-carboxamide], the IC50 (Assay A, read-out: SGK1 IC50) was found to be 7 nM.

`Nc1ncnn2c(C3=CCN(C(=O)c4ccon4)C3)cc(N3CCC[C@@H](NC(=O)c4ccc(Cl)s4)C3)c12` [Example 882, (R)-N-(1-(4-amino-7-(1-(isoxazole-3-carbonyl)-2,5-dihydro-1H-pyrrol-3-yl)pyrrolo[2,1-f][1,2,4]triazin-5-y1)piperidin-3-y1)-5-chlorothiophene-2-carboxamide]: the IC50 (Assay A, read-out: SGK1 IC50) is 1 nM. Still for that read-out and setting: to `NCCC(=O)N1CC=C(c2cc(N3CCC[C@@H](NC(=O)c4ccc(Cl)s4)C3)c3c(N)ncnn23)C1` [Example 883, (R)-N-(1-(4-amino-7-(1-(3-aminopropanoy1)-2,5-dihydro-1H-pyrrol-3-yl)pyrrolo[2,1-f][1,2,4]triazin-5-y1)piperidin-3-y1)-5-chlorothiophene-2-carboxamide] belongs 6 nM; to `Cc1nc(-c2cc(C(=O)N3CC=C(c4cc(N5CCC[C@@H](NC(=O)c6ccc(Cl)s6)C5)c5c(N)ncnn45)C3)no2)cs1` [Example 884, (R)-N-(1-(4-amino-7-(1-(5-(2-methylthiazol-4-yl)isoxazole-3-carbony1)-2,5-dihydro-1H-pyrrol-3-yl)pyrrolo[2,1-f][1,2,4]triazin-5-y1)piperidin-3-y1)-5-chlorothiophene-2-carboxamide], 99 nM. Still for that read-out and setting: as for `Nc1ncnn2c(C3=CCN(C(=O)c4ccns4)C3)cc(N3CCC[C@@H](NC(=O)c4ccc(Cl)s4)C3)c12` [Example 885, (R)-N-(1-(4-amino-7-(1-(isothiazole-5-carbonyl)-2,5-dihydro-1H-pyrrol-3-yl)pyrrolo[2,1-f][1,2,4]triazin-5-y1)piperidin-3-y1)-5-chlorothiophene-2-carboxamide], the figure is 8 nM; as for `Nc1ncnn2c(C3=CCN(C(=O)c4cncs4)C3)cc(N3CCC[C@@H](NC(=O)c4ccc(Cl)s4)C3)c12` [Example 886, (R)-N-(1-(4-amino-7-(1-(thiazole-5-carbonyl)-2,5-dihydro-1H-pyrrol-3-yl)pyrrolo[2,1-f][1,2,4]triazin-5-yl)piperidin-3-y1)-5-chlorothiophene-2-carboxamide], 4 nM; as for `Nc1ncnn2c(C3=CCN(C(=O)c4ncco4)C3)cc(N3CCC[C@@H](NC(=O)c4ccc(Cl)s4)C3)c12` [Example 887, (R)-N-(1-(4-amino-7-(1-(oxazole-2-carbonyl)-2,5-dihydro-1H-pyrrol-3-y1)pyrrolo[2,1-f][1,2,4]triazin-5-y1)piperidin-3-y1)-5-chlorothiophene-2-carboxamide], 8 nM. For `Nc1ncnn2c(C3=CCN(C(=O)[C@H]4CCOC4)C3)cc(N3CCC[C@@H](NC(=O)c4ccc(Cl)s4)C3)c12` [Example 888, N-((R)-1-(4-amino-7-(1-((S)-tetrahydrofuran-3-carbonyl)-2,5-dihydro-1H-pyrrol-3-yl)pyrrolo[2,1-f][1,2,4]triazin-5-yl)piperidin-3-y1)-5-chlorothiophene-2-carboxamide], the IC50 (Assay A, read-out: SGK1 IC50) amounted to 6 nM. Same read-out and setting: to `Nc1ncnn2c(C3=CCN(C(=O)[C@H]4CCCN4)C3)cc(N3CCC[C@@H](NC(=O)c4ccc(Cl)s4)C3)c12` [Example 889, N-((R)-1-(7-(1-(D-proly1)-2,5-dihydro-1H-pyrrol-3-y1)-4-aminopyrrolo[2,1-f][1,2,4]triazin-5-yl)piperidin-3-y1)-5-chlorothiopbene-2-carboxamide, TFA] belongs 21 nM.

In the case of `Nc1ncnn2c(C3=CCN(C(=O)c4cnco4)C3)cc(N3CCC[C@@H](NC(=O)c4ccc(Cl)s4)C3)c12` [Example 890, (R)-N-(1-(4-amino-7-(1-(oxazole-5-carbony1)-2,5-dihydro-1H-pyrrol-3-y1)pyrrolo[2,1-f][1,2,4]triazin-5-yl)piperidin-3-y1)-5-chlorothiophene-2-carboxamide], the IC50 (Assay A, read-out: SGK1 IC50) stood at 1 nM.

As for `Nc1ncnn2c(C3=CCN(C(=O)[C@H]4CCNC4)C3)cc(N3CCC[C@@H](NC(=O)c4ccc(Cl)s4)C3)c12` [Example 891, N-((R)-1-(4-amino-7-(1-((S)-pyrrolidine-3-carbonyl)-2,5-dihydro-1H-pyrrol-3-y1)pyrrolo[2,1-f][1,2,4]triazin-5-y1)piperidin-3-y1)-5-chlorothiophene-2-carboxamide], where the note is “Assay A, read-out: SGK1 IC50”, the IC50 stood at 25 nM. Regarding `Nc1ncnn2c(C3=CCN(C(=O)[C@H]4CCCCN4)C3)cc(N3CCC[C@@H](NC(=O)c4ccc(Cl)s4)C3)c12` [Example 892, N-((R)-1-(4-amino-7-(1-((R)-piperidine-2-carbonyl)-2,5-dihydro-1H-pyrrol-3-y1)pyrrolo[2,1-f][1,2,4]triazin-5-yl)piperidin-3-y1)-5-chlorothiophene-2-carboxamide, TFA], the IC50 (Assay A, read-out: SGK1 IC50) was 15 nM.

With `Nc1ncnn2c(C3=CCN(C(=O)C4CCCOC4)C3)cc(N3CCC[C@@H](NC(=O)c4ccc(Cl)s4)C3)c12` (stereo partly drawn) [Example 893, N-((3R)-1-(4-amino-7-(1-(tetrahydro-2H-pyran-3-carbony1)-2,5-dihydro-1H-pyrrol-3-yl)pyrrolo[2,1-f][1,2,4]triazin-5-y1)piperidin-3-y1)-5-chlorothiophene-2-carboxamide], the IC50 (Assay A, read-out: SGK1 IC50) came to 7 nM.
